Measured values as given in article doi:10.1101/153262v1 (biorxiv, 2017).

Biological target: T1, EiCsm6 (Enterococcus italicus, UniProt E6LHV2)
T1 sequence (E6LHV2 1-430): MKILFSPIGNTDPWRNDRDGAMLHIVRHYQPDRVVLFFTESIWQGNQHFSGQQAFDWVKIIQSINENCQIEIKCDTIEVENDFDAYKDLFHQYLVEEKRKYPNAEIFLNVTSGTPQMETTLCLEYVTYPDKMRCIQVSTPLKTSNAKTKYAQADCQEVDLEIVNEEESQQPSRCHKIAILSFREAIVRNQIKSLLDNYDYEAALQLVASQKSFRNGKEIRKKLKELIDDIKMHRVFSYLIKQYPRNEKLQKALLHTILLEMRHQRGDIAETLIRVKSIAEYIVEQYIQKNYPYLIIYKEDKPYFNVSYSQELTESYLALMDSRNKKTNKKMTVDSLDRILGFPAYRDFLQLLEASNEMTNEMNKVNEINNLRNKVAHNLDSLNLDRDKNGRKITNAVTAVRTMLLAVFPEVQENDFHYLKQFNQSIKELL
Assay: fluorogenic RNase Alert cleavage, initial velocities, log
Assay type: biochemical
Conditions: activator; allosteric, CARF domain; 20 mM HEPES pH 7.5, 50 mM KCl

EC50: ~60 nM
Compound: Nc1ncnc2c1ncn2[C@@H]1O[C@H](CO)[C@@H](OP(=O)(O)OC[C@H]2O[C@@H](n3cnc4c(N)ncnc43)[C@H](O)[C@@H]2OP(=O)(O)OC[C@H]2O[C@@H](n3cnc4c(N)ncnc43)[C@H](O)[C@@H]2OP(=O)(O)OC[C@H]2O[C@@H](n3cnc4c(N)ncnc43)[C@H](O)[C@@H]2OP(=O)(O)OC[C@H]2O[C@@H](n3cnc4c(N)ncnc43)[C@H](O)[C@@H]2OP(=O)(O)OC[C@H]2O[C@@H](n3cnc4c(N)ncnc43)[C@@H]3OP(=O)(O)O[C@@H]32)[C@H]1O [A6>P, 2',3'-cyclic phosphate-terminated hexaadenylate]
